Measurements as given in patent publication EP4810052A2, “HCRHR2 SELECTIVE POLYPEPTIDES” (Gubra A/S, priority 2023, dated 2026).
pEC50: −log10 of the molar value. Read-outs that look alike come from different tables or passages of the source. Starred links: 1 amine or outer side, 2 acyl side, 3 side chain; linkers in the order of their positions; H or OH if unused. Non-standard residues stand in square brackets, D forms with d. Residues, ends and D or L forms follow the SMILES beside them. Groups on a side chain read outwards from the residue. *: point of attachment. C20 diacid = O=C(O)CCCCCCCCCCCCCCCCCCC(=O)*; γGlu = O=C(O)[C@H](CCC(=O)[*:2])N[*:1]; NMeI = CC[C@H](C)[C@H](NC)C(=O)O; Nle = CCCC[C@H](N)C(=O)O; AEEA = NCCOCCOCC(=O)O; Aib = CC(C)(N)C(=O)O

Experiments:
[1] = target: T1, hCRHR2 (Homo sapiens, UniProt Q13324); assay: HTRF cAMP assay, determination of hCRHR2 potency (peptide libraries 5 conc., purified peptides 11 conc.); assay type: cell-based; settings: for EC50: Table 4, library peptides having X^38 = Nle, read-out: hCRHR2 pEC50 (converted)
T1 sequence (Q13324 1-411): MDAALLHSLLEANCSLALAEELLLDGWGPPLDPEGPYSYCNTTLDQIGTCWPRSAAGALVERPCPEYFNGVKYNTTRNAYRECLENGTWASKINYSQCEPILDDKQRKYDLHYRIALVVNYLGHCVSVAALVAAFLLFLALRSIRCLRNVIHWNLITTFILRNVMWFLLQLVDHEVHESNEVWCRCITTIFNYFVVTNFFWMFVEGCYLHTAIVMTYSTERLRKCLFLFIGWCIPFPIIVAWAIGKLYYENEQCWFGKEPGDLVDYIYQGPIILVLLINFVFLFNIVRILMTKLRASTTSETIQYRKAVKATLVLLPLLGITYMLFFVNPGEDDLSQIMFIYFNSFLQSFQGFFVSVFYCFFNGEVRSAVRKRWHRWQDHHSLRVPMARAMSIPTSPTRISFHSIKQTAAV
Outline: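 Read-out was HTRF competitive cAMP detection (d2-labelled cAMP, cryptate-labelled antibody) in suspended, freshly thawed CHO-K1 cells stably carrying human CRHR2.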

[2] = target: T2, hCRHR1 (Homo sapiens, UniProt P34998); assay: HTRF cAMP assay, determination of hCRHR1 potency (peptide libraries 5 conc., purified peptides 11 conc.); assay type: cell-based; settings: for EC50: Table 4, library peptides having X^38 = Nle, read-out: hCRHR1 pEC50 (converted)
T2 sequence (P34998 24-415): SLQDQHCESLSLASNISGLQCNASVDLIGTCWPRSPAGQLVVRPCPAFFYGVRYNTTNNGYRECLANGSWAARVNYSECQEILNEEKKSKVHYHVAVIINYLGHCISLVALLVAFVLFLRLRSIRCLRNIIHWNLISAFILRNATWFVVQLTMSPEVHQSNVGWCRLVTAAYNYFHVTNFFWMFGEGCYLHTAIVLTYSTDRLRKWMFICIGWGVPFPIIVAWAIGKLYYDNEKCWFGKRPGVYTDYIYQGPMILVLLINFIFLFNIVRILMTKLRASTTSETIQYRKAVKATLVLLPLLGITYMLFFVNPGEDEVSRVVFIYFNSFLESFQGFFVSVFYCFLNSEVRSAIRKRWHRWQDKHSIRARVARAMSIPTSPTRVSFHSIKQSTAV
Outline: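 Cellular cAMP was read by time-resolved FRET between d2-labelled cAMP and cryptate anti-cAMP antibody. The cells were freshly thawed suspension CHO-K1 cells stably expressing human CRHR1.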

[3] = Thioflavin T fibril formation assay of purified peptides; assay type: physicochemical; settings: pH 7.5, ThT assay
Protocol: Thioflavin T fibril formation assay: Peptides were dissolved as 267 µM in 50 mM phosphate buffer pH 7.5 for 2 h at room temperature on a rocking table. The samples were then divided into three replicates of 80 µl/well and mixed with 2 µl/well Thioflavin T (ThT)to a final concentration of 4 µM ThT in a black 384 well microplate with a clear bottom (Greiner #781096). The plate was inserted in a CLARIOstar Plus microplate reader (BMG Labtech) and fibril formation was measured as an increase in fluorescence emission at 480 nm (excitation at 450 nm) during 96 h at 40°C with cycles of 5 min rest and 5 min linearshaking at700 rpm.
Compounds were dissolved to 200 µM (ca 1.0 mg/ml) in 50 mM phosphate buffer with preparation and ThT assay performed as described in the "General procedure for determination of fibril formation of peptides." above. Furthermore, samples were adjusted to pH values as indicated below. Additional co-formulations of compounds with semaglutide were prepared by dissolving compounds to 200 µM in commercially available semaglutide drug product (Ozempic®); these co-formulations were adjusted to pH 7.4.

[4] = pH 7.5

CC[C@H](C)[C@H](N)C(=O)N[C@H](C(=O)N[C@@H](CC(C)C)C(=O)N[C@@H](CO)C(=O)N[C@@H](CC(C)C)C(=O)N[C@@H](CC(=O)O)C(=O)N[C@H](C(=O)N1CCC[C@H]1C(=O)N[C@H](C(=O)NCC(=O)N[C@@H](CC(C)C)C(=O)N[C@@H](CC(C)C)C(=O)N[C@@H](CCC(N)=O)C(=O)N[C@H](C(=O)N[C@@H](CC(C)C)C(=O)N[C@@H](CC(C)C)C(=O)N[C@@H](CCC(=O)O)C(=O)N[C@@H](CCC(N)=O)C(=O)N[C@@H](C)C(=O)N[C@@H](CCCNC(=N)N)C(=O)N[C@@H](C)C(=O)N[C@@H](CCCNC(=N)N)C(=O)N[C@@H](C)C(=O)N[C@@H](C)C(=O)N[C@@H](CCCNC(=N)N)C(=O)N[C@@H](CCC(=O)O)C(=O)N[C@@H](CCC(N)=O)C(=O)N[C@@H](C)C(=O)N[C@@H](CCCCNC(=O)COCCOCCNC(=O)COCCOCCNC(=O)CC[C@H](NC(=O)CC[C@H](NC(=O)CCCCCCCCCCCCCCCCCCC(=O)O)C(=O)O)C(=O)O)C(=O)N[C@H](C(=O)N[C@@H](CC(N)=O)C(=O)N[C@@H](C)C(=O)N[C@@H](CCCNC(=N)N)C(=O)N[C@H](C(=O)N[C@@H](CC(C)C)C(=O)N[C@@H](C)C(=O)N[C@@H](CCCNC(=N)N)C(=O)N[C@H](C(N)=O)C(C)C)[C@@H](C)CC)[C@@H](C)O)[C@@H](C)CC)[C@@H](C)CC)C(C)C)C(C)C [SEQ ID NO: 2] (H-IVLSLDVPIGLLQILLEQARARAAREQAK([AEEA-AEEA-γGlu-γGlu-C20 diacid])TNARILARV-NH2)
Selectivity ratio (hCRHR1/ hCRHR2) ([1]; hCRHR1-EC50/hCRHR2-EC50): >2778 | pEC50 ([1]; purified peptides, CHO-K1 cells stably expressing hCRHR2, cAMP HTRF, read-out: hCRHR2 EC50): 8.74 | pEC50 ([2]; purified peptides, CHO-K1 cells stably expressing hCRHR1, cAMP HTRF, read-out: hCRHR1 EC50): < 5.30 | Fibrillation (pH 7.5) [3]: No | Solubility pH 7.5, target conc. =5 mg/mL (measured mg/mL) [4]: 0.016 mg/mL

CCCC[C@H](NC(=O)[C@@H](NC(=O)[C@H](CCC(=O)O)NC(=O)[C@H](C)NC(=O)[C@H](CC(N)=O)NC(=O)C(C)(C)NC(=O)[C@H](CCCCNC(=O)COCCOCCNC(=O)COCCOCCNC(=O)CC[C@H](NC(=O)CC[C@H](NC(=O)CCCCCCCCCCCCCCCCCCC(=O)O)C(=O)O)C(=O)O)NC(=O)[C@H](C)NC(=O)[C@H](CCC(N)=O)NC(=O)[C@H](CCC(=O)O)NC(=O)[C@H](CCCNC(=N)N)NC(=O)[C@H](C)NC(=O)[C@H](C)NC(=O)[C@H](CCCNC(=N)N)NC(=O)[C@H](C)NC(=O)[C@H](CCCNC(=N)N)NC(=O)[C@H](C)NC(=O)[C@H](CCC(N)=O)NC(=O)[C@H](CCCNC(=N)N)NC(=O)[C@H](CC(C)C)NC(=O)[C@H](CC(C)C)NC(=O)[C@@H](NC(=O)[C@H](CCC(N)=O)NC(=O)[C@H](CC(C)C)NC(=O)[C@H](CC(C)C)NC(=O)CNC(=O)[C@@H](NC(=O)[C@@H]1CCCN1C(=O)[C@@H](NC(=O)[C@H](CC(=O)O)NC(=O)[C@H](CC(C)C)NC(=O)[C@H](CO)NC(=O)[C@H](CC(C)C)NC(=O)[C@@H](NC(=O)[C@@H](NC)[C@@H](C)CC)C(C)C)C(C)C)[C@@H](C)CC)[C@@H](C)CC)[C@@H](C)CC)C(=O)N[C@@H](C)C(=O)N[C@@H](CCC(=O)O)C(=O)N[C@H](C(N)=O)C(C)C [compound 232] (H-[NMeI]VLSLDVPIGLLQILLRQARARAAREQAK([AEEA-AEEA-γGlu-γGlu-C20 diacid])[Aib]NAEI[Nle]AEV-NH2)
EC50 [1]: 0.158 nM | EC50 [2]: 50100 nM

CCCC[C@H](NC(=O)[C@@H](NC(=O)[C@H](CCC(=O)O)NC(=O)[C@H](C)NC(=O)[C@H](CC(N)=O)NC(=O)C(C)(C)NC(=O)[C@H](CCCCNC(=O)COCCOCCNC(=O)COCCOCCNC(=O)CC[C@H](NC(=O)CC[C@H](NC(=O)CCCCCCCCCCCCCCCCCCC(=O)O)C(=O)O)C(=O)O)NC(=O)[C@H](C)NC(=O)[C@H](CCC(N)=O)NC(=O)[C@H](CCC(=O)O)NC(=O)[C@H](CCCNC(=N)N)NC(=O)[C@H](C)NC(=O)[C@H](C)NC(=O)[C@H](CCCNC(=N)N)NC(=O)[C@H](C)NC(=O)[C@H](CCCNC(=N)N)NC(=O)[C@H](C)NC(=O)[C@H](CCC(N)=O)NC(=O)[C@H](CCCCN)NC(=O)[C@H](CC(C)C)NC(=O)[C@H](CC(C)C)NC(=O)[C@@H](NC(=O)[C@H](CCC(N)=O)NC(=O)[C@H](CC(C)C)NC(=O)[C@H](CC(C)C)NC(=O)CNC(=O)[C@@H](NC(=O)[C@@H]1CCCN1C(=O)[C@@H](NC(=O)[C@H](CC(=O)O)NC(=O)[C@H](CC(C)C)NC(=O)[C@H](CO)NC(=O)[C@H](CC(C)C)NC(=O)[C@@H](NC(=O)[C@@H](NC)[C@@H](C)CC)C(C)C)C(C)C)[C@@H](C)CC)[C@@H](C)CC)[C@@H](C)CC)C(=O)N[C@@H](C)C(=O)N[C@@H](CCC(=O)O)C(=O)N[C@H](C(N)=O)C(C)C [compound 233] (H-[NMeI]VLSLDVPIGLLQILLKQARARAAREQAK([AEEA-AEEA-γGlu-γGlu-C20 diacid])[Aib]NAEI[Nle]AEV-NH2)
EC50 [1]: 0.0398 nM | EC50 [2]: 3160 nM

CCCC[C@H](NC(=O)[C@@H](NC(=O)[C@H](CCC(=O)O)NC(=O)[C@H](C)NC(=O)[C@H](CC(N)=O)NC(=O)C(C)(C)NC(=O)[C@H](CCCCNC(=O)COCCOCCNC(=O)COCCOCCNC(=O)CC[C@H](NC(=O)CC[C@H](NC(=O)CCCCCCCCCCCCCCCCCCC(=O)O)C(=O)O)C(=O)O)NC(=O)[C@H](C)NC(=O)[C@H](CCC(N)=O)NC(=O)[C@H](CCC(=O)O)NC(=O)[C@H](CCCNC(=N)N)NC(=O)[C@H](C)NC(=O)[C@H](C)NC(=O)[C@H](CCCNC(=N)N)NC(=O)[C@H](C)NC(=O)[C@H](CCCNC(=N)N)NC(=O)[C@H](C)NC(=O)[C@H](CCC(N)=O)NC(=O)[C@H](CC(C)C)NC(=O)[C@H](CC(C)C)NC(=O)[C@H](CC(C)C)NC(=O)[C@@H](NC(=O)[C@H](CCC(N)=O)NC(=O)[C@H](CC(C)C)NC(=O)[C@H](CC(C)C)NC(=O)CNC(=O)[C@@H](NC(=O)[C@@H]1CCCN1C(=O)[C@@H](NC(=O)[C@H](CC(=O)O)NC(=O)[C@H](CC(C)C)NC(=O)[C@H](CO)NC(=O)[C@H](CC(C)C)NC(=O)[C@@H](NC(=O)[C@@H](NC)[C@@H](C)CC)C(C)C)C(C)C)[C@@H](C)CC)[C@@H](C)CC)[C@@H](C)CC)C(=O)N[C@@H](C)C(=O)N[C@@H](CCC(=O)O)C(=O)N[C@H](C(N)=O)C(C)C [compound 235] (H-[NMeI]VLSLDVPIGLLQILLLQARARAAREQAK([AEEA-AEEA-γGlu-γGlu-C20 diacid])[Aib]NAEI[Nle]AEV-NH2)
EC50 [1]: 0.126 nM | EC50 [2]: 158000 nM
